What follows are compounds tested against T1, Renin (Homo sapiens, UniProt P00797) (assay: Inhibition against recombinant human renin (rHR)).
T1 sequence (P00797 whole entry): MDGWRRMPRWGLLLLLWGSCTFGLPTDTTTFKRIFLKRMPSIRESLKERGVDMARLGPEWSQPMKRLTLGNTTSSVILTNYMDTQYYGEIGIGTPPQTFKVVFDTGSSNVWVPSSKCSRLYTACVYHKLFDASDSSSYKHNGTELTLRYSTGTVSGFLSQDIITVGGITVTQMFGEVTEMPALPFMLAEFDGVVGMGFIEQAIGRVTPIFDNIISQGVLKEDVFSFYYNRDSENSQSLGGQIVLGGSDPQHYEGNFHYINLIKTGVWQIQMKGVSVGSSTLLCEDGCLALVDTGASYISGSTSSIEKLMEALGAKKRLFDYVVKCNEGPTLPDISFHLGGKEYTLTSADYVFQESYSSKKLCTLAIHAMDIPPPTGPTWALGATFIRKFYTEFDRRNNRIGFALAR
Work on `CSC[C@H](NC(=O)CNC(=O)N1CCC(=O)CC1)C(=O)N[C@@H](Cc1cccc(-c2ccccc2)c1)[C@@H](O)[C@@H](O)CC(C)C` yielded an IC50 of 0.11 µM. Compound `CSC[C@H](NC(C)=O)C(=O)N[C@@H](Cc1cccc(-c2ccccc2)c1)[C@@H](O)[C@@H](O)CC(C)C` has an IC50 of 1.6 µM. `CSC[C@H](NC(=O)CNC(=O)N1CCC(=O)CC1)C(=O)N[C@@H](Cc1ccc(-c2ccccc2)cc1)[C@@H](O)[C@@H](O)CC(C)C` showed an IC50 of 0.13 µM. For `CSC[C@H](NC(C)=O)C(=O)N[C@@H](CC1CCCCC1)[C@@H](O)[C@@H](O)CC(C)C`, the IC50 was 5.1 µM. Work on `CSC[C@H](NC(=O)CNC(=O)N1CCC(=O)CC1)C(=O)N[C@@H](Cc1ccc(Oc2ccccc2)cc1)[C@@H](O)[C@@H](O)CC(C)C` yielded an IC50 of 0.066 µM. For `CSC[C@H](NC(=O)CNC(=O)N1CCC(=O)CC1)C(=O)N[C@@H](CC1CCCCC1)[C@@H](O)[C@@H](O)CC(C)C`, the IC50 was 1.2 µM. In the case of `CSC[C@H](NC(C)=O)C(=O)N[C@@H](Cc1ccc(-c2ccccc2)cc1)[C@@H](O)[C@@H](O)CC(C)C`, the IC50 is reported as 1.1 µM. Compound `CSC[C@H](NC(=O)[C@H](Cc1ccccc1)NC(=O)N1CCC(=O)CC1)C(=O)N[C@@H](CC1CCCCC1)[C@@H](O)[C@@H](O)CC(C)C` has an IC50 of 0.0003 µM. `CSC[C@H](NC(=O)CNC(=O)N1CCC(=O)CC1)C(=O)N[C@@H](Cc1ccccc1)[C@@H](O)[C@@H](O)CC(C)C` gave an IC50 of 16 µM.

— ChEMBL document CHEMBL1128071, “Rational design, synthesis, and X-ray structure of renin inhibitors with extended P1 sidechains” (Bioorg Med Chem Lett, 1995)
